The source of these data is patent publication US20260294836A1, “REMOTE CONTROL AND QUANTITATIVE MONITORING OF DRUG RELEASE FROM NANOPARTICLES BASED ON MAGNETIC PARTICLE IMAGING” (Board of Trustees of Michigan State University, priority 2022, published 2026).

The structures appear in SMILES notation.

Format in all cases: in vivo, Balb/c mice
Experiment [1] relates to 4T1 tumor. Briefly: Short-term tumor inhibition (BLI, tumor size, 15 days). The following applies: DOX alone. The procedure: (§1) The 4T1 tumor-bearing Balb/c mice may be randomly divided into six groups. In at least one example embodiment, each group may include three mice. In at least one example embodiment, a first group may receive PLGA. In at least one example embodiment, a second group may receive SPNCD. In at least one example embodiment, a third group may receive SPNCD and may be irradiated with NIR for 1 minute. In at least one example embodiment, a fourth group may receive SPNCD and may be irradiated with NIR for 7 minutes. In at least one example embodiment, a fifth group may receive SPNC and may be irradiated with NIR for 1 minute. In at least one example embodiment, a sixth group may receive DOX.
(§2) Once tumor volumes reach or become greater than 100 mm^3, the mice may be intratumorally injected with the various conditions (e.g., PLGA in the instance of the first group, SPNCD in the instance of the second group, SPNCD+NIR-1 minute in the instance of the third group, SPNCD+NIR-7 minute in the instances of the fourth group, SPNC+NIR-1 minute in the instance of the fifth group, and DOX in the instance of the sixth group) every 2 days for 15 days. Tumor size and mouse body weight may be measured every 2 days for 15 days in total. […]

Experiment [2] has as its system 4T1 tumor. Put plainly: Apoptosis in tumors (flow cytometry and TUNNEL assay). The following applies: no NIR. The procedure: as §1, §2
The next experiment deals with F4/80-positive TAM. Put plainly: F4/80 immunostaining of tumor sections (TAM accumulation). To be noted: without NIR. The procedure: as §1, §2
The test system of experiment [3] is 4T1 tumor. Put plainly: Long-term tumor inhibition and metastasis, 4T1 tumor mice. The following applies: DOX alone; PBS 30 days. The procedure: The 4T1 cells may be implanted into the mammary fat pads of six-week-old female Balb/c mice. In at least one example embodiment, about 1×10^6 cells may be implanted per mouse.
4T1 tumor-bearing Balb/c mice and BT549 tumor-bearing Nude mice ay be randomly divided into three groups. In at least one example embodiment, each group may include eight mice (PBS, SPNCD+NIR 7 min, DOX). Once tumor volumes reach or become greater than 100 mm^3, 4T1 tumor-bearing mice (DOX: 0.122 mg/kg) and BT549 tumor-bearing mice (DOX: 1.5 mg/kg) may be intratumorally injected with agents from the various conditions every 2 days for 15 days followed by NIR irradiation (808 nm, 1W). In at least one example embodiment, the DOX dose may be determined based on the IC50 of each cell line. Tumor size and mouse weight may be measured every 3 days for 80 days in total. Bioluminescence imaging (e.g., PerkinElmer, USA) may be conducted every 3 days by intraperitoneally injected D luciferin (e.g., 150 mg/kg) into 4T1 tumor-bearing Balb/c mice to observe the metastasis of 4T1 tumor-bearing Balb/c mice.
Tumor growth, mouse bodyweight, and tumor metastasis may be monitored for 80 days in 4T1 DOX-sensitive and BT459 DOX-resistant tumor mice. The mice may be randomly divided into four groups. In at least one example embodiment, each group may include five mice. […]

On to `COc1cccc2c1C(=O)c1c(O)c3c(c(O)c1C2=O)C[C@@](O)(C(=O)CO)C[C@@H]3O[C@H]1C[C@H](N)[C@H](O)[C@H](C)O1` [DOX, doxorubicin], for which, in the experiment with 4T1 tumor [1], the tumor size result is recorded as “did not increase in size”. The apoptosis in tumor result in the experiment on 4T1 tumor [2] is “induced significant apoptosis”. Also, the “F4/80-positive TAM accumulation versus PLGA treated groups” value with F4/80-positive TAM is listed as “increased more”. In the experiment with 4T1 tumor [3], this molecule gave a time-to-tumor metastasis of 60 days post injection.
